From EP2488529B1, “Spirocyclic derivatives as histone deacetylase inhibitors” (DAC S.r.l., priority 2009, dated 2011)

How the values were obtained:
HDAC = assay: Assay of enzyme inhibition of HDAC (BIOMOL kit, fluorescence); type: biochemical; conditions: nuclear fraction of Hela cells; substrate 200 µM; 15 min at RT
Protocol: The in-vitro activity of HDAC inhibitors was assayed using a BIOMOL Kit, according to the instructions from the manufacturer (Biomolecular Research Laborator). 15 µl of 30 x diluted nuclear fraction of Hela cells, was diluted to 50 µl with the assay buffer containing the HDAC inhibitor and the substrate (lysine with acetylated amino group on the side chain) at a concentration of 200 µM. The samples were incubated for 15 min at RT and then exposed to a developer (10 min at RT). In this last step a fluorophore was produced, whose fluorescence was measured using an excitation wavelength of 355 nm and an emission at 460 nm. The IC50 was calculated using GraphPad Software.

HCT-116 = assay: Cell growth, CellTiter-Glo Luminescent Cell Viability Assay (antiproliferative assay); type: cell-based; conditions: Homo sapiens; HCT-116 cells, incubated for 72 h; read-out: HCT116 IC50
Description: (§1) CellTiter-Glo® Luminescent Cell Viability Assay (Promega) is a homogeneous method of determining the number of viable cells in culture based on quantitation of the present ATP, which indicates the presence of metabolically active cells. The homogeneous assay procedure involves addition of a single reagent (CellTiter-Glo® Reagent) directly to the cells, which leads to cell lysis and generation of a luminescent signal proportional to the amount of the ATP and the number of cells present in culture. The assay relies on the properties of a proprietary thermostable luciferase (Ultra-Glo® recombinant luciferase), which generates a luminescent signal. K562, A549, and HCT-116 cells, in exponential growth, were incubated for 72 h with different concentrations of the inhibitors. After 72 h, a volume of CellTiter-Glo® Reagent equal to the volume of cell culture medium was added. The content was mixed for 2 min to induce cell lysis. The luminescence was recorded after further 10 min at RT in order to obtain a stable luminescent signal.
(§2) The IC50 was calculated using GraphPad Software.

K562 = assay: as above; type: cell-based; conditions: Homo sapiens; K562 cells, incubated for 72 h
Description: as §1, §2

A549 = assay: as above; type: cell-based; conditions: Homo sapiens; A549 cells, incubated for 72 h
Description: as §1, §2

IC50 (HDAC) [µM]	IC50 (HCT-116) [µM]	IC50 (K562) [µM]	IC50 (A549) [µM]	SMILES
0.1 to 1	≤ 1	≤ 1	1 to 3	O=C(/C=C/c1cc(F)c2c(c1)C(=O)CC1(CCN(Cc3ccccc3)CC1)O2)NO [Example 51, (E)-3-(1'-Benzyl-8-fluoro-4-oxospiro[chroman-2,4'-piperidine]-6-yl)-N-hydroxy-acrylamide]
0.1 to 1	≤ 1	≤ 1	1 to 3	Cc1cc(/C=C/C(=O)NO)cc2c1OC1(CCN(Cc3ccccc3)CC1)CC2=O [Example 52, (E)-3-(1'-Benzyl-8-methyl-4-oxospiro[chroman-2,4'-piperidine]-6-yl)-N-hydroxy-acrylamide]
≥ 1	1 to 3	1 to 3	≥ 3	CON=C1CC2(CCCN(Cc3ccc(F)cc3)C2)Oc2ccc(/C=C/C(=O)NO)cc21 (centres unmarked) [Example 53, (E)-3-(1'-(4-Fluorobenzyl)-4-(methoxyimino)spiro[chroman-2,3'-piperidine]-6-yl)-N-hydroxyacrylamide]
≤ 0.1	≤ 1	≤ 1	≤ 1	O=C(/C=C/c1ccc2c(c1)C(=NO)CC1(CCCN(C3CCCC3)C1)O2)NO (centres unmarked) [Example 54, (E)-3-(1'-Cyclopentyl-4-(hydroxyimino)spiro[chroman-2,3'-piperidine]-6-yl)-N-hydroxyacrylamide]
≥ 1	≤ 1	≤ 1	1 to 3	O=C(/C=C/c1ccc2c(c1)C(=NOCc1ccccc1)CC1(CCCN(CCc3ccccc3)C1)O2)NO (centres unmarked) [Example 55, (E)-3-(4-(Benzyloxyimino)-1'-phenethylspiro[chroman-2,3'-piperidine]-6-yl)-N-hydroxyacrylamide]
